# From the supplement of paper PMC13380429
# Tests used:
# Settings in all cases: 72 h
# Caco-2 [1] = assay: cell viability relative to DMSO; higher = less toxic
# Calu-3 [2] = assay: as above
# HepG2 [3] = assay: as above
# U2OS [4] = assay: as above
# Vero E6 [5] = assay: as above
# Caco-2 [6] = assay: relative viability EC50 (midpoint between 100% and the lowest measured viability); higher = less toxic
# Calu-3 [7] = assay: as above
# HepG2 [8] = assay: as above
# U2OS [9] = assay: as above
# Vero E6 [10] = assay: as above
# Caco-2 [11] = assay: drug sensitivity score (DSS) for viability; higher = more toxic; extreme values may be limits of the assay
# Calu-3 [12] = assay: as above
# HepG2 [13] = assay: as above
# U2OS [14] = assay: as above
# Vero E6 [15] = assay: as above
Compound,cell viability (Caco-2 [1]; 1 nM),cell viability (Caco-2 [1]; 10 nM),cell viability (Caco-2 [1]; 100 nM),cell viability (Caco-2 [1]; 1000 nM),cell viability (Caco-2 [1]; 10000 nM),cell viability (Calu-3 [2]; 1 nM),cell viability (Calu-3 [2]; 10 nM),cell viability (Calu-3 [2]; 100 nM),cell viability (Calu-3 [2]; 1000 nM),cell viability (Calu-3 [2]; 10000 nM),cell viability (HepG2 [3]; 1 nM),cell viability (HepG2 [3]; 10 nM),cell viability (HepG2 [3]; 100 nM),cell viability (HepG2 [3]; 1000 nM),cell viability (HepG2 [3]; 10000 nM),cell viability (U2OS [4]; 1 nM),cell viability (U2OS [4]; 10 nM),cell viability (U2OS [4]; 100 nM),cell viability (U2OS [4]; 1000 nM),cell viability (U2OS [4]; 10000 nM),cell viability (Vero E6 [5]; 1 nM),cell viability (Vero E6 [5]; 10 nM),cell viability (Vero E6 [5]; 100 nM),cell viability (Vero E6 [5]; 1000 nM),cell viability (Vero E6 [5]; 10000 nM),relative viability EC50 (Caco-2 [6]),relative viability EC50 (Calu-3 [7]),relative viability EC50 (HepG2 [8]),relative viability EC50 (U2OS [9]),relative viability EC50 (Vero E6 [10]),drug sensitivity score (Caco-2 [11]),drug sensitivity score (Calu-3 [12]),drug sensitivity score (HepG2 [13]),drug sensitivity score (U2OS [14]),drug sensitivity score (Vero E6 [15])
Cc1[nH]c2ccc(F)cc2c1-c1nc2c3cccnc3c3ncccc3c2[nH]1 [APTO-253],95.9%,100%,94.7%,88.3%,90.3%,111%,93.9%,95.2%,36.6%,5.3%,93.2%,97.2%,96.7%,92.1%,42%,96.7%,96.6%,97.9%,80.1%,27.4%,96.2%,94.6%,94%,95.9%,86.9%,> 10 µM,0.639 µM,2.07 µM,1.47 µM,> 10 µM,0.6,13,4.5,7,0
NC1=N[C@@](c2cccc(-c3cncnc3)c2)(c2ccnc(C(F)F)c2)c2cccc(F)c21 [AZD3839],107%,102%,101%,96.1%,97%,102%,98.4%,99.7%,98.7%,109%,108%,103%,106%,118%,97.3%,95.4%,99%,106%,97.9%,94.5%,110%,106%,99.9%,102%,104%,> 10 µM,> 10 µM,> 10 µM,> 10 µM,> 10 µM,0,0,0,0,0
CC(=O)N(O)C/C=C/c1cccc(Oc2ccccc2)c1 [BW-A4C],92.5%,103%,115%,92.9%,102%,89.6%,105%,97.8%,114%,112%,95.6%,99.4%,104%,84.5%,92.9%,95.4%,95.5%,94.6%,98.6%,81.8%,107%,86.1%,109%,95.2%,102%,> 10 µM,> 10 µM,> 10 µM,> 10 µM,> 10 µM,0,0,1.4,0.6,0
C=CC(=O)Nc1cccc(Nc2nc(Nc3ccc(NC4CN(CCF)C4)cc3OC)ncc2C(F)(F)F)c1 [CNX-2006],105%,100%,99.1%,83.7%,38.3%,96.2%,99.4%,77.9%,44.4%,10%,99.9%,110%,97.3%,102%,27.6%,102%,98.7%,98.8%,92.7%,37.2%,102%,102%,101%,88.7%,26.7%,1.51 µM,0.464 µM,3.34 µM,2.21 µM,1.97 µM,5.9,13.3,3.8,4.7,5.9
Nc1nc(Nc2ccccc2)nc2c1ncn2[C@@H]1O[C@H](CO)[C@@H](O)[C@H]1O [CV-1808],98.9%,93%,101%,105%,99.3%,101%,106%,93%,110%,106%,95.4%,94.2%,109%,98.8%,94.9%,103%,100%,98.5%,106%,105%,94%,93%,94.5%,96.3%,97.2%,> 10 µM,> 10 µM,> 10 µM,> 10 µM,> 10 µM,0,0,0,0,0
CN(C)c1ccc(/C=C2\CCCN=C2c2cccnc2)cc1 [DMAB-anabaseine],103%,107%,103%,120%,76.2%,101%,109%,139%,105%,88.8%,109%,90.2%,98.2%,99.7%,87.4%,94.2%,96.4%,97.4%,94.4%,93.6%,105%,92.4%,99.3%,93.5%,91.5%,> 10 µM,> 10 µM,> 10 µM,> 10 µM,> 10 µM,0.4,0,0.1,0,0
CS(=O)(=O)c1ccc(-c2cc(Br)sc2-c2ccc(F)cc2)cc1 [DUP-697],110%,95.1%,102%,104%,88.2%,97.2%,98%,103%,112%,114%,103%,107%,105%,104%,79.5%,103%,98.1%,103%,105%,104%,95.6%,101%,93.4%,96.5%,97.8%,> 10 µM,> 10 µM,> 10 µM,> 10 µM,> 10 µM,0,0,0.4,0,0
COc1c(C)cnc(Cn2cc(C#CCC(C)(C)O)c3c(Cl)nc(N)nc32)c1C [EC-144],105%,97.3%,88.8%,33.1%,39.9%,104%,108%,84.3%,39.4%,49.5%,96.4%,103%,32.3%,1.2%,1.3%,110%,107%,94.5%,9.2%,3.5%,99.3%,102%,105%,37.3%,32.8%,0.189 µM,0.152 µM,0.0735 µM,0.319 µM,0.413 µM,14.2,13.6,25.6,17.3,11.3
"CCOC(=O)c1ncn2c1[C@@H]1CCCN1C(=O)c1cc(OC)ccc1-2 [L-655,708]",97.8%,95.8%,118%,95.1%,107%,101%,88%,96.3%,96.7%,105%,90.7%,100%,104%,98.7%,106%,100%,98.9%,97.5%,99.2%,104%,94.6%,95%,92.3%,97.9%,111%,> 10 µM,> 10 µM,> 10 µM,> 10 µM,> 10 µM,0,0,0,0,0
NCCCC[C@H](N)C(=O)O [L-lysine],110%,102%,96.8%,86%,106%,92.7%,102%,106%,97.7%,105%,111%,102%,103%,93.2%,114%,103%,96.7%,101%,97.5%,99.5%,108%,106%,99.6%,98.8%,104%,> 10 µM,> 10 µM,> 10 µM,> 10 µM,> 10 µM,0,0,0,0,0
O=C(O)C[C@H]1CC[C@H](c2ccc(-c3ccc(Nc4ccc(C(F)(F)F)nc4)cn3)cc2)CC1 [LCQ908],104%,102%,98.3%,100%,92.4%,92.1%,103%,95%,95.7%,95.5%,99.4%,102%,108%,93.5%,99.8%,95.7%,102%,97%,102%,90.5%,105%,104%,103%,100%,104%,> 10 µM,> 10 µM,> 10 µM,> 10 µM,> 10 µM,0,0,0,0,0
COc1cccc(-c2ccc([C@@H](Oc3cc(-c4ccc(C[C@H](N)C(=O)O)cc4)nc(N)n3)C(F)(F)F)cc2)c1 [LX1031],91.5%,96.7%,94.1%,92.9%,101%,99.3%,98.2%,102%,97.3%,103%,111%,100%,111%,99.3%,102%,96.4%,93.4%,95.2%,102%,99.9%,105%,89.6%,101%,98.8%,106%,> 10 µM,> 10 µM,> 10 µM,> 10 µM,> 10 µM,0,0,0,0,0
COc1cc(CN(CCN)C(=O)c2cccs2)ccc1OCc1ccccc1 [M8-B],89.5%,98.4%,101%,95.6%,89.1%,103%,89.1%,108%,99.7%,98.5%,99.8%,96.5%,91.1%,110%,96.2%,95.1%,97.6%,102%,95.7%,95.4%,94.8%,94.1%,97.2%,98%,102%,> 10 µM,> 10 µM,> 10 µM,> 10 µM,> 10 µM,0.1,0,0,0,0
C=CCn1c(=O)c2cnc(Nc3ccc(N4CCN(C)CC4)cc3)nc2n1-c1cccc(C(C)(C)O)n1 [MK-1775],106%,99.4%,96.1%,35.4%,25.9%,108%,93.4%,70.8%,50.9%,28.8%,99%,89.5%,91.2%,33.3%,10.2%,102%,95.7%,97.6%,21.3%,5.8%,100%,94.7%,94.1%,57.4%,14.2%,0.399 µM,0.218 µM,0.466 µM,0.49 µM,0.981 µM,12.4,13.1,13.8,14.7,9.7
COC(=O)C1=C(C)NC(C)=C(C(=O)OC)C1c1ccccc1[N+](=O)[O-] [nifedipine],112%,100%,90.4%,96.8%,76.8%,,,,,,95.7%,84.8%,96.8%,117%,102%,104%,102%,103%,100%,96.6%,99.5%,103%,106%,101%,94.9%,> 10 µM,> 10 µM,> 10 µM,> 10 µM,> 10 µM,1.3,0,0,0,0
